Measurements from patent publication US8835428B2, “Diacylglycerol acyltransferase inhibitors” (Piramal Enterprises Limited, priority 2008, dated 2014).

Molecular target: T1, hDGAT1 (Homo sapiens, UniProt O75907)
T1 construct: host or cells: Sf9 insect cells (baculovirus); microsomal preparation
T1 sequence (O75907 1-488): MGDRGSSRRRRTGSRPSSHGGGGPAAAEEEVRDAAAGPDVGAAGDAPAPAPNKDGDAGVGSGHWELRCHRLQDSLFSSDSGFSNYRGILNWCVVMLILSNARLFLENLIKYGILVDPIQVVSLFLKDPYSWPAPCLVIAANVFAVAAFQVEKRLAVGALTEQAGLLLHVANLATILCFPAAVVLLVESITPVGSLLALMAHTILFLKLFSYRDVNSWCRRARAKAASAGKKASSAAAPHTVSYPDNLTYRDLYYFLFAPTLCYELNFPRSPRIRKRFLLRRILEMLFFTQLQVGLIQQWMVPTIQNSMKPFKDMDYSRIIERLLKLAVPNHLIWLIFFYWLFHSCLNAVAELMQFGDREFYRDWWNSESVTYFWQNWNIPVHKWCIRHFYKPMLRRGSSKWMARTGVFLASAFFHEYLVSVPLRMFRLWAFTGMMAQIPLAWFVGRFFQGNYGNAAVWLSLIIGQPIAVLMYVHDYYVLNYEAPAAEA
Assay: In-vitro DGAT1 assay (hDGAT1 microsomes from Sf9 cells, 14C oleoyl CoA, triglyceride formation)
Format: biochemical
Protocol: In-vitro Protocol for DGAT1 Assay
Sf9 Culture and Treatment
Sf9 cells were grown in T25 flasks containing Graces's Insect media with 10% FBS with antibiotic (100 units/mL penicillin, 100 μg/mL streptomycin sulphate, 0.25 μg/mL Amptotericin B as Fungizone) grown in a 27° C. incubator:
hDGAT1ORF expression clone (RZPDo839C09146 in pDEST vector) was obtained from RZPD, Germany. hDGAT1 bacmid DNA was obtained by transformation of the hDGAT expression clone into DH10Bac E. coli competent cells. Approximately 1 μg of hDGAT1 bacmid DNA was infected into Sf9 cells with Cellfectin (Invitrogen) reagent. Following infection, Sf9 cells were incubated at 27° C. for 30 minutes. Five hours after infection, the media was replaced with growth media containing antibiotic (100 units/mL penicillin, 100 μg/mL streptomycin sulphate, 0.25 μg/mL Amptotericin B as Fungizone) and incubated at 27° C. for 72 hours. The supernatant containing the virus was centrifuged at 1500×g for 5 minutes, passed through 0.22 μm filter, and subsequently stored at 4° C. The virus was further amplified three more times by re-infection of Sf9 cells and the viral titer was determined by plaque assay.
Preparation of DGAT1 Microsomes from Sf9 Cells
Sf9 cells were seeded in spinner flasks on day 0 at a cell density of 1×10^6 and infected on day 1 with hDGAT1 baculovirus at a multiplicity of infection (MOI) of 5 and a cell density of 2×10^6. On day 3 (or 66-72 hours), cells were harvested and centrifuged at 2500×g for 10 minutes. Pellet was resuspended in lysis buffer (100 mM sucrose, 50 mM KCl, 40 mM KH2PO4, 30 mM EDTA, pH 7.2) and passed through 21-gauge needle approximately 10 times. The mixture was centrifuged at 12,000 rpm in a Sigma 12158-H rotor at 4° C. for 30 minutes. The supernatant was subjected to centrifugation at 35,000 rpm in a Beckman Ti-45 rotor at 4° C. for 1 hour. The resultant pellet containing the microsomes were resuspended overnight in 1 mL of lysis buffer and total protein concentration was estimated using Bradford Reagent. Microsomes were aliquoted and stored at −20° C.
Measurement of DGAT1 Activity
Frozen aliquots of hDGAT1 containing microsomes were thawed (5-10 mg/mL total protein) on ice and diluted to a working stock of 1 mg/mL with DGAT Assay Buffer (DAB). The DGAT reaction assay was performed by following the procedure described in U.S. Pat. No. 6,607,893 with some modifications that are described below.
Preparation of DGAT1 substrate mixture: 1 mL stock solution of DGAT1 substrate mixture contains (i) 5.6 μL of ^14C oleoyl CoA (16.8 nCi) and 35 μL 1,2-dioleoyl-sn-glycerol (409.5 μM) or (ii) 5.6 μL of ^14C oleoyl CoA (16.8 nCi) and 105 μL 1,2-dioleoyl-sn-glycerol (1228.5 μM) or (iii) 5.6 μL of ^14C oleoyl CoA (16.8 nCi) and 140 μL 1,2-dioleoyl-sn-glycerol (1638 μM).
1,2-sn-dioleoylglycerol substrate concentration in the 1 mL stock solution of DGAT1 substrate mixture was varied depending on the microsome concentration used in the assay reaction. 1,2-dioleoyl-sn-glycerol stock (19.5 mM) was prepared by dissolving 25 mg of 1,2-dioleoyl-sn-glycerol (Sigma, US) in 2060 μL of acetone. The assay was performed in duplicates in a reaction volume of 100 μL. The reaction volume consisted of: • (i) 27.5 μL of DGAT assay buffer (0.25M Sucrose, 1 mM EDTA (pH 8.0), 150 mM Tris-HCl, pH 7.4, 1.25 mg/mL, fatty acid free BSA), • (ii) 10 μL of compound, of present invention or standard (dissolved in DMSO and diluted to 10× with DAB and screened at 10 μM, 5 μM and 1 μM), • (iii) 60 μL DGAT1 substrate mixture taken from a 1 mL stock (16.8 nCi of ^14C oleoyl CoA and 409.5 μM or 1228.5 μM or 1638 μM of 1,2-dioleyl-sn-glycerol), • (iv) 2.5-10 μL of 1 mg/mL of microsomes (the amount of assay buffer was varied depending upon the concentration of microsome to make up the volume to 100 μL). Procedure:
The reaction was started by the addition of 2.5-10 μL of 1 mg/mL of microsomes (iv) to a mixture of (i), (ii) and (iii), vortexed and incubated at 37° C. for 10 minutes. […]

Row | Molecule | inhibition at 10 µM (At 10 μM) | further results
1 | 2-(3-(4-(Benzyloxy)phenyl)isoxazole-5-carboxamido)-3-methylbutanoic acid [Example 324] | – | % inhibition of hDGAT1 (At 1 μM): + (>0% Inhibition ≦50)
2 | 7-{3-[4-(6-Fluoro-benzothiazol-2-ylamino)-phenyl]-isoxazole-5-yl}-9-oxa-6,8-diaza-spiro[4,5]dec-7-en-10-one [Example 67] | – | % inhibition of hDGAT1 (At 10 μM): +++ (>75% Inhibition ≦100)
3 | CCOC(=O)c1cc(-c2ccc(Nc3nc4ccc(F)cc4s3)cc2)no1 [Example 1, 3-[4-(6-Fluoro-benzothiazol-2-ylamino)-phenyl]-isoxazole-5-carboxylic acid ethyl ester] | 50 to 75% | –
4 | O=C(O)c1cc(-c2ccc(Nc3nc4ccc(F)cc4s3)cc2)no1 [Example 2, 3-[4-(6-Fluoro-benzothiazol-2-ylamino)-phenyl]-isoxazole-5-carboxylic acid] | 0 to 50% | –
5 | NC(=O)c1cc(-c2ccc(Nc3nc4ccc(F)cc4s3)cc2)no1 [Example 3, 3-[4-(6-Fluoro-benzothiazol-2-ylamino)-phenyl]-isoxazole-5-carboxylic acid amide] | 0 to 50% | –
6 | NC(=S)c1cc(-c2ccc(Nc3nc4ccc(F)cc4s3)cc2)no1 [Example 4, 3-[4-(6-Fluoro-benzothiazol-2-ylamino)-phenyl]-isoxazole-5-carbothioic acid amide] | 0 to 50% | –
7 | COC(=O)[C@@H](NC(=O)c1cc(-c2ccc(Nc3nc4ccc(F)cc4s3)cc2)no1)C(C)C [Example 5, (S)-2-({3-[4-(6-Fluoro-benzothiazol-2-ylamino)-phenyl]-isoxazole-5-carbonyl}-amino)-3-methyl-butyric acid methyl ester] | 50 to 75% | –
8 | COC(=O)[C@@H](NC(=S)c1cc(-c2ccc(Nc3nc4ccc(F)cc4s3)cc2)no1)C(C)C [Example 6, (S)-2-({3-[4-(6-Fluoro-benzothiazol-2-ylamino)-phenyl]-isoxazole-5-carbothioyl}-amino)-3-methyl-butyric acid methyl ester] | 0 to 50% | –
9 | COC(=O)[C@@H](NC(=NO)c1cc(-c2ccc(Nc3nc4ccc(F)cc4s3)cc2)no1)C(C)C [Example 7, (S)-2-({3-[4-(6-Fluoro-benzothiazol-2-ylamino)-phenyl]-N-hydroxy-isoxazole-5-carboximidoyl}-amino)-3-methyl-butyric acid methyl ester] | 50 to 75% | –
10 | CC(C)[C@H](NC(=NO)c1cc(-c2ccc(Nc3nc4ccc(F)cc4s3)cc2)no1)C(=O)O [Example 8, (S)-2-({3-[4-(6-Fluoro-benzothiazol-2-ylamino)-phenyl]-N-hydroxy-isoxazole-5-carboximidoyl}-amino)-3-methyl-butyric acid] | 50 to 75% | –
11 | COC(=O)[C@H](CO)NC(=O)c1cc(-c2ccc(Nc3nc4ccc(F)cc4s3)cc2)no1 [Example 9, (S)-2-({3-[4-(6-Fluoro-benzothiazol-2-ylamino)-phenyl]-isoxazole-5-carbonyl}-amino)-3-hydroxy-propionic acid methyl ester] | 0 to 50% | –

Further lines, with some results ahead:

Row | inhibition at 10 µM (At 10 μM) | Molecule | further results
12 | 50 to 75% | O=C(N[C@@H](CO)C(=O)O)c1cc(-c2ccc(Nc3nc4ccc(F)cc4s3)cc2)no1 [Example 10, (S)-2-({3-[4-(6-Fluoro-benzothiazol-2-ylamino)-phenyl]-isoxazole-5-carbonyl}-amino)-3-hydroxy-propionic acid] | –
13 | 0 to 50% | COC(=O)[C@H]1CSC(c2cc(-c3ccc(Nc4nc5ccc(F)cc5s4)cc3)no2)=N1 [Example 11, (S)-2-{3-[4-(6-Fluoro-benzothiazol-2-ylamino)-phenyl]-isoxazol-5-yl}-4,5-dihydro-thiazole-4-carboxylic acid methyl ester] | –
14 | 50 to 75% | COC[C@H](NC(=O)c1cc(-c2ccc(Nc3nc4ccc(F)cc4s3)cc2)no1)C(=O)OC [Example 12, (S)-2-({3-[4-(6-Fluoro-benzothiazol-2-ylamino)-phenyl]-isoxazole-5-carbonyl}-amino)-3-methoxy-propionic acid methyl ester] | –
15 | 75 to 100% | COC[C@H](NC(=O)c1cc(-c2ccc(Nc3nc4ccc(F)cc4s3)cc2)no1)C(=O)O [Example 13, (S)-2-({3-[4-(6-Fluoro-benzothiazol-2-ylamino)-phenyl]-isoxazole-5-carbonyl}-amino)-3-methoxy-propionic acid] | –
16 | 0 to 50% | COC[C@H](NC(=S)c1cc(-c2ccc(Nc3nc4ccc(F)cc4s3)cc2)no1)C(=O)OC [Example 14, (S)-2-({3-[4-(6-Fluoro-benzothiazol-2-ylamino)-phenyl]-isoxazole-5-carbothioyl}-amino)-3-methoxy-propionic acid methyl ester] | –
17 | 50 to 75% | COC[C@H](NC(=S)c1cc(-c2ccc(Nc3nc4ccc(F)cc4s3)cc2)no1)C(=O)O [Example 15, (S)-2-({3-[4-(6-Fluoro-benzothiazol-2-ylamino)-phenyl]-isoxazole-5-carbothioyl}-amino)-3-methoxy-propionic acid] | –
18 | 50 to 75% | COC[C@H](NC(=NO)c1cc(-c2ccc(Nc3nc4ccc(F)cc4s3)cc2)no1)C(=O)OC [Example 16, (S)-2-({3-[4-(6-Fluoro-benzothiazol-2-ylamino)-phenyl]-N-hydroxy-isoxazole-5-carboximidoyl}-amino)-3-methoxy-propionic acid methyl ester] | –
19 | 0 to 50% | COC[C@H](NC(=NO)c1cc(-c2ccc(Nc3nc4ccc(F)cc4s3)cc2)no1)C(=O)O [Example 17, (S)-2-({3-[4-(6-Fluoro-benzothiazol-2-ylamino)-phenyl]-N-hydroxy-isoxazole-5-carboximidoyl}-amino)-3-methoxy-propionic acid] | –
20 | 50 to 75% | COC(=O)[C@@H]1CCCN1C(=O)c1cc(-c2ccc(Nc3nc4ccc(F)cc4s3)cc2)no1 [Example 18, (S)-1-{3-[4-(6-Fluoro-benzothiazol-2-ylamino)-phenyl]-isoxazole-5-carbonyl}-pyrrolidine-2-carboxylic acid methyl ester] | –
21 | 50 to 75% | O=C(O)[C@@H]1CCCN1C(=O)c1cc(-c2ccc(Nc3nc4ccc(F)cc4s3)cc2)no1 [Example 19, (S)-1-{3-[4-(6-Fluoro-benzothiazol-2-ylamino)-phenyl]-isoxazole-5-carbonyl}-pyrrolidine-2-carboxylic acid] | –
